# Data: patent publication US7202219B1, “Use of D-tagatose as a prebiotic food component” (priority 1998, dated 2007)
# Columns and labels:
# [1] = system: content from the 8 sections; experiment: 12 hour in vitro incubation of content from gut sections, no D-tagatose added (Example 2); format: cell-based, pig
# Experimental: (§1) In this study, 3 groups of each 2 pigs were having a standard pig diet+20% sucrose, a standard pig diet+10% sucrose+10% D-tagatose, and a standard pig diet+20% D-tagatose for 33 days. The pigs were killed on the 33. day 6 hours after morning feeding, and the entire gastrointestinal tract was divided into 8 segments.
# (§2) The concentrations of the various SCFA were measured in the 8 sections immediately after killing, and further the content from the 8 sections was used for 12 hour in vitro incubations at 37° C. and anaerobic conditions. In this in vitro assay no D-tagatose was added, and the fermentation products originate from unabsorbed D-tagatose and other undigestible food components from the diets.
# The data presented here are normalized to production of SCFA pr kg feed.
# [2] = Concentration of butyrate in gastrointestinal sections at slaughtering (Example 2); format: in vivo, pig; conditions: pigs, 0, 10 or 20% D-tagatose in diet for 33 days; hind gut (FIG. 1)
# Experimental: as §1, §2
# human faeces = experiment: In vitro fermentation of tagatose by incubation of human faeces (Example 4); format: cell-based
# Experimental: (§3) In this study 16 human volunteers deliver a faeces sample before any intake of D-tagatose (unadapted) and another faeces sample after 14 days' intake of 3×10 g of D-tagatose pr day (adapted). The 16 volunteers are on controlled diet 4 days before the delivery of each faeces samples. Faeces slurries, 20%, were incubated at 37° C. and anaerobic conditions for 48 hours with or without 1% D-tagatose added. Samples for determination of SCFA were taken after 4 hours and after 48 hours of incubation. The amount of SCFA produced by D-tagatose is calculated as the amount produced in the assay with 1% D-tagatose added subtracted by the amount produced in the assay without D-tagatose. Further, the delivered faeces samples were tested for content of various intestinal bacteria counts by spreading on selective media.
# colon content = experiment: In vitro fermentation of D-tagatose by pig caecum/colon content slurries (Example 1); format: cell-based; conditions: for Tagatose degradation: in vitro incubation; for Mole % of SCFA after microbial fermentation of D-Tagatose: Acetate / Mole % of SCFA after microbial fermentation of D-Tagatose: Butyrate / Mole % of SCFA after microbial fermentation of D-Tagatose: Capronate / Mole % of SCFA after microbial fermentation of D-Tagatose: Formate / Mole % of SCFA after microbial fermentation of D-Tagatose: Heptanoate / Mole % of SCFA after microbial fermentation of D-Tagatose: Propionate / Mole % of SCFA after microbial fermentation of D-Tagatose: Valerate: 1% tagatose added, 0–4 h
# Experimental: In the study, one group of 8 pigs was having a standard diet+15% sucrose (unadapted), and another group of 8 pigs was fed a standard diet+5% sucrose+10% D-tagatose (adapted) for 17 days.
# On the 17. day the pigs were killed 3 hours after the morning feeding, and the entire gastrointestinal tract was sectioned. […] 20% slurries were incubated at 37° C. and anaerobic conditions for 4 hours with or without 1% D-tagatose added. The amount of SCFA produced by D-tagatose is calculated as the amount produced in the assay with 1% D-tagatose added subtracted by the amount produced in the assay without D-tagatose.
# intestinal bacteria = experiment: Counts of intestinal bacteria in faeces on selective media (Example 4); format: in vivo; conditions: human volunteers, 3×10 g D-tagatose pr day for 14 days versus before intake (FIG. 5)
# Experimental: as §3
# [3] = In vivo absorption of SCFA in the blood (Example 3); set-up: species or system pig
# Experimental: In this pig study the in vivo absorption of SCFA in the blood is measured by taking blood samples simultaneously from 3 catheters in Vena Mesenterica, Ateria mesenterica and Vena Porta over a 12 hour period after the morning feeding. The absorption is measured in the same 5 pigs at 3 different occasions, that is after 7 days adaptation to standard pig diet+20% sucrose (sucrose), the first day of switching to a standard pig diet+20% D-tagatose (unadapted), and after 7 days adaptation to a standard pig diet+20% D-tagatose (adapted). The concentration of SCFA's is determined in samples from the portal vein, that is the blood stream leading from the digestive system to the liver, and in the arterial blood, that is the blood stream before the digestive system. The difference between the two integrated by time is a measure of the intestinal absorption of SCFA's.
# The area between the 2 curves is equal to the total absorption of butyrate from the intestine.
# [4] = oral; cited from earlier work
# human faecal incubations = conditions: human faecal in vitro system (Mortensen et al. 1988); cited from earlier work
# [5] = normalized pr kg feed, 0, 10 or 20% D-tagatose in diet (FIG. 3)
# [6] = 4 hours of incubation, Non-adapted
# [7] = 48 hours of incubation, Adapted
# [8] = 48 hours of incubation, Non-adapted
# [9] = addition of D-tagatose to the diet
# [10] = pigs after 7 days of adaptation to 20% D-tagatose diet (FIG. 4)
structure (smiles),measurement,setting,value
O=C(CO)[C@@H](O)[C@@H](O)[C@H](O)CO [D-tagatose],12 hour in vitro production of butyrate,"[1]; content from gut sections of pigs on 0, 10 or 20% D-tagatose diet (FIG. 2)",acting in a dose response manner
same,total 12 hour in vitro production of SCFA in the gut: acetate,[1]; [5],not influenced
same,total 12 hour in vitro production of SCFA in the gut: butyrate,[1]; [5],in a dose response manner promote the microbiological production of butyrate
same,concentration of butyrate in the various gastrointestinal sections at the time of slaughtering,[2],increasing in a dose response manner
same,Molar Ratios (Mole %) of SCFA's: Acetic acid,"human faeces; 4 hours of incubation, Adapted",42.1 Mole %
same,Molar Ratios (Mole %) of SCFA's: Butyric acid,"human faeces; 4 hours of incubation, Adapted",34.7 Mole %
same,Molar Ratios (Mole %) of SCFA's: Capronic acid,"human faeces; 4 hours of incubation, Adapted",3.5 Mole %
same,Molar Ratios (Mole %) of SCFA's: Formic acid,"human faeces; 4 hours of incubation, Adapted",5.8 Mole %
same,Molar Ratios (Mole %) of SCFA's: Heptanic acid,"human faeces; 4 hours of incubation, Adapted",0.6 Mole %
same,Molar Ratios (Mole %) of SCFA's: Lactic acid,"human faeces; 4 hours of incubation, Adapted",9.0 Mole %
same,Molar Ratios (Mole %) of SCFA's: Propionic acid,"human faeces; 4 hours of incubation, Adapted",4.1 Mole %
same,Molar Ratios (Mole %) of SCFA's: Valeric acid,"human faeces; 4 hours of incubation, Adapted",1.0 Mole %
same,Total SCFA (production mmol/l),"human faeces; 4 hours of incubation, Adapted",24.3 mmol/L
same,Molar Ratios (Mole %) of SCFA's: Acetic acid,human faeces; [6],62.8 Mole %
same,Molar Ratios (Mole %) of SCFA's: Butyric acid,human faeces; [6],24.5 Mole %
same,Molar Ratios (Mole %) of SCFA's: Capronic acid,human faeces; [6],6.7 Mole %
same,Molar Ratios (Mole %) of SCFA's: Formic acid,human faeces; [6],0.5 Mole %
same,Molar Ratios (Mole %) of SCFA's: Heptanic acid,human faeces; [6],1.1 Mole %
same,Molar Ratios (Mole %) of SCFA's: Lactic acid,human faeces; [6],3.9 Mole %
same,Molar Ratios (Mole %) of SCFA's: Propionic acid,human faeces; [6],0.0 Mole %
same,Molar Ratios (Mole %) of SCFA's: Valeric acid,human faeces; [6],3.0 Mole %
same,Total SCFA (production mmol/l),human faeces; [6],8.8 mmol/L
same,Molar Ratios (Mole %) of SCFA's: Acetic acid,human faeces; [7],35.3 Mole %
same,Molar Ratios (Mole %) of SCFA's: Butyric acid,human faeces; [7],47.0 Mole %
same,Molar Ratios (Mole %) of SCFA's: Capronic acid,human faeces; [7],13.5 Mole %
same,Molar Ratios (Mole %) of SCFA's: Formic acid,human faeces; [7],0.1 Mole %
same,Molar Ratios (Mole %) of SCFA's: Heptanic acid,human faeces; [7],1.2 Mole %
same,Molar Ratios (Mole %) of SCFA's: Lactic acid,human faeces; [7],3.0 Mole %
same,Molar Ratios (Mole %) of SCFA's: Propionic acid,human faeces; [7],0.5 Mole %
same,Molar Ratios (Mole %) of SCFA's: Valeric acid,human faeces; [7],1.6 Mole %
same,Total SCFA (production mmol/l),human faeces; [7],44.0 mmol/L
same,Molar Ratios (Mole %) of SCFA's: Acetic acid,human faeces; [8],37.7 Mole %
same,Molar Ratios (Mole %) of SCFA's: Butyric acid,human faeces; [8],38.7 Mole %
same,Molar Ratios (Mole %) of SCFA's: Capronic acid,human faeces; [8],15.2 Mole %
same,Molar Ratios (Mole %) of SCFA's: Formic acid,human faeces; [8],0.0 Mole %
same,Molar Ratios (Mole %) of SCFA's: Heptanic acid,human faeces; [8],1.6 Mole %
same,Molar Ratios (Mole %) of SCFA's: Lactic acid,human faeces; [8],8.6 Mole %
same,Molar Ratios (Mole %) of SCFA's: Propionic acid,human faeces; [8],0.0 Mole %
same,Molar Ratios (Mole %) of SCFA's: Valeric acid,human faeces; [8],1.2 Mole %
same,Total SCFA (production mmol/l),human faeces; [8],49.0 mmol/L
same,time of adaptation in the in vitro incubation system,"human faeces; human faeces slurry, 1% D-tagatose",≤ 48 h
same,Tagatose degradation,"colon content; Control pigs (unadapted), colon",1.1 g/h/kg digesta
same,Mole % of SCFA after microbial fermentation of D-Tagatose: Acetate,"colon content; Control pigs, caecum",54.8 Mole %
same,Mole % of SCFA after microbial fermentation of D-Tagatose: Butyrate,"colon content; Control pigs, caecum",18.2 Mole %
same,Mole % of SCFA after microbial fermentation of D-Tagatose: Capronate,"colon content; Control pigs, caecum",2.0 Mole %
same,Mole % of SCFA after microbial fermentation of D-Tagatose: Formate,"colon content; Control pigs, caecum",2.5 Mole %
same,Mole % of SCFA after microbial fermentation of D-Tagatose: Heptanoate,"colon content; Control pigs, caecum",0.2 Mole %
same,Mole % of SCFA after microbial fermentation of D-Tagatose: Propionate,"colon content; Control pigs, caecum",11.2 Mole %
same,Mole % of SCFA after microbial fermentation of D-Tagatose: Valerate,"colon content; Control pigs, caecum",11.1 Mole %
same,Tagatose degradation,"colon content; Control pigs, caecum",2.7 g/h/kg digesta
same,Mole % of SCFA after microbial fermentation of D-Tagatose: Acetate,"colon content; Control pigs, colon",70.1 Mole %
same,Mole % of SCFA after microbial fermentation of D-Tagatose: Butyrate,"colon content; Control pigs, colon",16.7 Mole %
same,Mole % of SCFA after microbial fermentation of D-Tagatose: Capronate,"colon content; Control pigs, colon",4.8 Mole %
same,Mole % of SCFA after microbial fermentation of D-Tagatose: Formate,"colon content; Control pigs, colon",0.0 Mole %
same,Mole % of SCFA after microbial fermentation of D-Tagatose: Heptanoate,"colon content; Control pigs, colon",0.6 Mole %
same,Mole % of SCFA after microbial fermentation of D-Tagatose: Propionate,"colon content; Control pigs, colon",0.0 Mole %
same,Mole % of SCFA after microbial fermentation of D-Tagatose: Valerate,"colon content; Control pigs, colon",7.8 Mole %
same,Tagatose degradation,"colon content; D-tagatose pigs (adapted), colon",15.3 g/h/kg digesta
same,Mole % of SCFA after microbial fermentation of D-Tagatose: Acetate,"colon content; D-tagatose pigs, caecum",21.5 Mole %
same,Mole % of SCFA after microbial fermentation of D-Tagatose: Butyrate,"colon content; D-tagatose pigs, caecum",21.8 Mole %
same,Mole % of SCFA after microbial fermentation of D-Tagatose: Capronate,"colon content; D-tagatose pigs, caecum",1.9 Mole %
same,Mole % of SCFA after microbial fermentation of D-Tagatose: Formate,"colon content; D-tagatose pigs, caecum",14.4 Mole %
same,Mole % of SCFA after microbial fermentation of D-Tagatose: Heptanoate,"colon content; D-tagatose pigs, caecum",0.0 Mole %
same,Mole % of SCFA after microbial fermentation of D-Tagatose: Propionate,"colon content; D-tagatose pigs, caecum",17.0 Mole %
same,Mole % of SCFA after microbial fermentation of D-Tagatose: Valerate,"colon content; D-tagatose pigs, caecum",23.4 Mole %
same,Tagatose degradation,"colon content; D-tagatose pigs, caecum",3.7 g/h/kg digesta
same,Mole % of SCFA after microbial fermentation of D-Tagatose: Acetate,"colon content; D-tagatose pigs, colon",23.3 Mole %
same,Mole % of SCFA after microbial fermentation of D-Tagatose: Butyrate,"colon content; D-tagatose pigs, colon",46.3 Mole %
same,Mole % of SCFA after microbial fermentation of D-Tagatose: Capronate,"colon content; D-tagatose pigs, colon",6.8 Mole %
same,Mole % of SCFA after microbial fermentation of D-Tagatose: Formate,"colon content; D-tagatose pigs, colon",3.7 Mole %
same,Mole % of SCFA after microbial fermentation of D-Tagatose: Heptanoate,"colon content; D-tagatose pigs, colon",0.8 Mole %
same,Mole % of SCFA after microbial fermentation of D-Tagatose: Propionate,"colon content; D-tagatose pigs, colon",4.0 Mole %
same,Mole % of SCFA after microbial fermentation of D-Tagatose: Valerate,"colon content; D-tagatose pigs, colon",15.1 Mole %
same,butyrate in SCFA profile,colon content; colon content from unadapted pigs,less than 20%
same,entero-bacteria in faeces,intestinal bacteria,decreased
same,number of lactic acid bacteria in faeces,intestinal bacteria,increased in number
same,number of lactobacilli in faeces,intestinal bacteria,increased in number
same,total absorption of butyrate (area between portal and arterial curves),[3]; adapted versus unadapted to 20% D-tagatose diet,does not differ in the adapted and unadapted state
same,absorption of acetate,[3]; [9],not increased
same,absorption of propionate,[3]; [9],not increased
same,concentration of butyrate in arterial blood,[3]; [10],increasing
same,concentration of butyrate in the portal blood,[3]; [10],very steep increase a few hours after feeding
same,time of adaptation to butyrate production,"[3]; pigs in vivo, 20% D-tagatose diet",≤ 12 h
same,butyrate in the portal vein,"[3]; pigs unadapted, first day of 20% D-tagatose diet, 12 hours after feeding (FIG. 4)",gradually increasing over the 12 hours of measuring
same,ingested D-tagatose absorbed in the small intestine,[4],15–20%
O=C[C@H](O)[C@@H](O)[C@@H](O)[C@H](O)C(=O)O [galacturonic acid],proportion of butyrate on fermentation,human faecal incubations,high proportion of butyrate
